Measurements as given in patent US20260374739A1, “SMALL MOLECULAR WEIGHT CHEMICAL COMPOUND TO ANTAGONIZE EPH-EPHRIN TETRAMERIZATION AND INHIBIT BIDIRECTIONAL SIGNALING” (THE BOARD OF REGENTS OF THE UNIVERSITY OF TEXAS SYSTEM, priority 2022, published 2026).
Several values for one entry are separate records, joined by “and”; a condition that tells them apart may be missing. Equal values may be shown once. Entries after “also recorded” stand apart in the source; their conditions may differ. Marks after values point to notes of the source that are not given here.

Assays:
EphrinB2-EphB2 [1] = target: T1, EphrinB2-EphB2 (Homo sapiens, UniProt P29323); experiment: Octet tetramerization inhibition, immobilized human EphrinB2 binding to 50 nM soluble human EphB2
T1 construct: soluble human EphB1-His, EphB2-His, and EphB4-His ectodomains; commercially available human EphrinB1-Fc (EB1), EphrinB2-Fc (EB2), and EphrinB3-Fc (EB3) ectodomain proteins; purchased
T1 sequence (P29323 19-543 limits assumed): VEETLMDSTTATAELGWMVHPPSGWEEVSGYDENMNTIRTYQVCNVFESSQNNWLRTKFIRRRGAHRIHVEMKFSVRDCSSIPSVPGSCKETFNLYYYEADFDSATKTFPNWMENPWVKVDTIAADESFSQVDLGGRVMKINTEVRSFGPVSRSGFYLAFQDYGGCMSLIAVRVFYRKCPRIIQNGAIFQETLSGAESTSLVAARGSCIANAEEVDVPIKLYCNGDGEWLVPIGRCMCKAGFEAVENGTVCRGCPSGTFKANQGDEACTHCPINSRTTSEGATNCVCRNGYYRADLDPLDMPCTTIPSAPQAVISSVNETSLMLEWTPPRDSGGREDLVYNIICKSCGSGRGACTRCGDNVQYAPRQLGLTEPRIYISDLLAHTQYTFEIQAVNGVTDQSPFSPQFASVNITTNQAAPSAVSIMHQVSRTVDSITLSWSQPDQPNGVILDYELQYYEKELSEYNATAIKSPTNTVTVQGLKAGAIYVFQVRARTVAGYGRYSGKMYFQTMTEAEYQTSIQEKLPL

EphrinB2-EphB4 = target: T2, EphrinB2-EphB4 (Homo sapiens, UniProt P54760); experiment: Octet 80 sec association/500 sec dissociation, immobilized human EphrinB2-Fc binding to soluble human EphB4-His; conditions: for selectivity among EphrinB2-EphB1/B2/B4: 3.2 μM
T2 construct: soluble human EphB1-His, EphB2-His, and EphB4-His ectodomains; commercially available human EphrinB1-Fc (EB1), EphrinB2-Fc (EB2), and EphrinB3-Fc (EB3) ectodomain proteins; purchased
T2 sequence (P54760 16-539 limits assumed): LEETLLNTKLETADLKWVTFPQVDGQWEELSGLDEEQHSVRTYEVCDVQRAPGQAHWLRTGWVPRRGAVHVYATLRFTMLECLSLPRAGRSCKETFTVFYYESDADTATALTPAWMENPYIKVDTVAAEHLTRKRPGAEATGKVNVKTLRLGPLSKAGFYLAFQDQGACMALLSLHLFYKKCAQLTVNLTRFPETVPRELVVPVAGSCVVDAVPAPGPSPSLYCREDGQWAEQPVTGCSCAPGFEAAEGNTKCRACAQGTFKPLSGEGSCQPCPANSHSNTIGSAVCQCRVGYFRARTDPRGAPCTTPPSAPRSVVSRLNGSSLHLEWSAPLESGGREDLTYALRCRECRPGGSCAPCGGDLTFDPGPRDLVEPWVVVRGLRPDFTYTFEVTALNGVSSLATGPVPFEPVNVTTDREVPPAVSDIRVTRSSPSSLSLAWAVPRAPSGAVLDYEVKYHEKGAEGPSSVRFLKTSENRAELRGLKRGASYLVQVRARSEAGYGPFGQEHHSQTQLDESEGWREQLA
Description: (§1) In another experiment, whether certain A20 analogs might have specificity for different Eph receptors was tested. An Octet RED384 system was used to obtain biophysical ON-OFF binding data (association-dissociation) for the three different human EphrinB2-EphB1, EphrinB2-EphB2, and EphrinB2-EphB4 protein-protein interactions and to assess the effect of A20 chemicals on the binding kinetics.
(§2) FIGS. 72A-72C show three example Octet sensorgram response traces for the immobilized human EphrinB2 ectodomain protein binding to soluble forms of the human EphB1, EphB2, and EphB4 ectodomain proteins, in the absence or presence of an A20 chemical (buffer conditions are always PBSTD:PBS with 0.05% Tween-20, 1% DMSO, and +/− indicated chemical). After loading EphrinB2-Fc protein to Octet AHC biosensors, washing, and obtaining stable baseline measurements in the appropriate PBSTD (either with or without indicated chemical), the sensors are placed in its buffer that also contains the indicated soluble EphB protein for the association step (0-80″), and then returned to its buffer for the dissociation step (81″-580″). In each figure (FIGS. 72A-72C), a sensorgram run using 10 μM of the 2×HCl salt form of A20-I is compared to the no compound control run to exemplify the maximum level of reduced response signal typically obtained with a potent A20 chemical.
(§3) Because the response levels during the dissociation step plateau for the EphrinB2-EphB2 and EphrinB2-EphB1 interactions by the first 80″, AUCs were also calculated for run data encompassing the first 160″ of each experiment to account for both the 80″ association data (red asterisks) and the first 80″ of dissociation data (marked by green line and asterisks).
(§4) The selectivity of another A20 analog (a 3×HCL salt form of compound BQPB4) in comparison to previously tested compound, A20-1, was tested as described in Example 27 above.
(§5) Further to the experiments listed above, a series of dose-response experiments were conducted to determine the IC50 of a selected A20 chemical (A20-1) on the kinetics of human EphrinB2 ligand ectodomain protein binding to its cognate human EphB1, EphB2, and EphB4 receptor ectodomain proteins. FIG. 74A-74C are representative sensorgrams showing the effect of 0, 0.1, 0.2, 0.4, 0.8, 1.6, and 3.2 μM, concentrations of the 2×HCl salt of A20-I along with a 10 μM max standard (also A20-1) on three different Ephrin-EphB interactions (e.g., EphB1 in FIG. 74A, EphB2 in FIG. 74B and EphB4 in FIG. 74C). […] Additional IC50 values were determined at specific timepoints, at 75″ into the association step and at 55″ into the dissociation step (135″).
(§6) All absolute and relative IC50 values are provided in the Table 6 below, where absolute are based off the full binding sensorgram traces, and relative are based off of the max control traces.
(§7) In another experiment, the % inhibition for various A20 analog chemicals against the three different EphrinB2-EphB protein interactions was determined. Specifically, the percent inhibition for immobilized human EphrinB2-Fc binding to 25 nM soluble human EphB1-His (FIG. 76A, enlarged in FIG. 76D), EphB2-His (FIG. 76B, enlarged in FIG. 76E), and EphB4-His (FIG. 76C, enlarged in FIG. 76F) with 3511-I, 8009-9255, QTM-Br, A19, A19-NO2, and IM (all at 3.2 μM) was determined.

EphrinB2-EphB2 [2] = target: T1, EphrinB2-EphB2; experiment: Octet 80 sec association/500 sec dissociation, immobilized human EphrinB2-Fc binding to soluble human EphB2-His; conditions: immobilized human EphrinB2, 25 nM soluble human EphB2; for EphB2 Inhibition Percent, Inhibition of Association ONLY: at 3.2 μM and 80 seconds; for EphB2 Inhibition Percent, Inhibition of Association-Dissociation: at 3.2 μM and 580 seconds
Description: as §1, §2, §3, §4, §5, §6, §7

EphrinB2-EphB1 = target: T3, EphrinB2-EphB1 (Homo sapiens, UniProt P54762); experiment: Octet 80 sec association/500 sec dissociation, immobilized human EphrinB2-Fc binding to soluble human EphB1-His; conditions: immobilized human EphrinB2, 25 nM soluble human EphB1
T3 construct: soluble human EphB1-His, EphB2-His, and EphB4-His ectodomains; commercially available human EphrinB1-Fc (EB1), EphrinB2-Fc (EB2), and EphrinB3-Fc (EB3) ectodomain proteins; purchased
T3 sequence (P54762 18-540 limits assumed): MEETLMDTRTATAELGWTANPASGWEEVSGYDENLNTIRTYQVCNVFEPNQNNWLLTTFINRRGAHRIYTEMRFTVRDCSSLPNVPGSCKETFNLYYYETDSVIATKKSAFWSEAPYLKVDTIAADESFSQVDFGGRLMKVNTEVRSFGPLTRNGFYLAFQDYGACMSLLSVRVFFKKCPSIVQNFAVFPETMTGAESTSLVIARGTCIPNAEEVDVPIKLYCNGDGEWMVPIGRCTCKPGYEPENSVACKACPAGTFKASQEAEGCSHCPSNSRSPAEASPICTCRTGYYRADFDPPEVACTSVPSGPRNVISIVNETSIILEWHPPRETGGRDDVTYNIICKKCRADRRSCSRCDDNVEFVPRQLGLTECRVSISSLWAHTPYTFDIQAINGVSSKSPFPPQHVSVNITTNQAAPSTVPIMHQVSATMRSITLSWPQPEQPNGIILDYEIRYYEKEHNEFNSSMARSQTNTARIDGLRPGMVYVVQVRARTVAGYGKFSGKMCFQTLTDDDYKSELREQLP
Description: as §1, §2, §3, §4, §5, §6, §7

[3] = Absolute AUC/IC50, Table A, EphrinB2-EphB2
[4] = Absolute Association IC50 (300 sec), Table A, EphrinB2-EphB2
[5] = Absolute Dissociation IC50 (450 sec), Table A, EphrinB2-EphB2
[6] = Relative AUC/IC50, Table A, EphrinB2-EphB2, compound 7: association only
[7] = Relative Association IC50 (300 sec), Table A, EphrinB2-EphB2
[8] = Relative Dissociation IC50 (450 sec), Table A, EphrinB2-EphB2
[9] = tetramerization inhibitor IC50 (relative), association step, surmountable tetramer

SMILES | tetramerization inhibitor activity (EphrinB2-EphB2 [1]) | IC50 (EphrinB2-EphB2 [1]; [3]) | IC50 (EphrinB2-EphB2 [1]; [4]) | IC50 (EphrinB2-EphB2 [1]; [5]) | IC50 (EphrinB2-EphB2 [1]; [6]) | IC50 (EphrinB2-EphB2 [1]; [7]) | IC50 (EphrinB2-EphB2 [1]; [8]) | IC50 (EphrinB2-EphB2 [1]; [9]) | disruption of unsurmountable tetramer (EphrinB2-EphB2 [1]; 0.8-3.2 μM, listed as QPB-NO4) | selectivity among EphrinB2-EphB1/B2/B4 (EphrinB2-EphB4) | EphB4 Inhibition Percent, Inhibition of Association ONLY (EphrinB2-EphB4; at 3.2 μM and 80 seconds, immobilized human EphrinB2, 25 nM soluble human EphB4) | EphB4 Inhibition Percent, Inhibition of Association-Dissociation (EphrinB2-EphB4; at 3.2 μM and 580 seconds, immobilized human EphrinB2, 25 nM soluble human EphB4) | EphB2 Inhibition Percent, Inhibition of Association ONLY (EphrinB2-EphB2 [2]) | EphB2 Inhibition Percent, Inhibition of Association-Dissociation (EphrinB2-EphB2 [2]) | EphB1 Inhibition Percent, Inhibition of Association ONLY (EphrinB2-EphB1; at 3.2 μM and 80 seconds) | EphB1 Inhibition Percent, Inhibition of Association-Dissociation (EphrinB2-EphB1; at 3.2 μM and 580 seconds)
Cc1ccc2c(CN3CCN(c4ccc(Br)cc4)CC3)ccc(O)c2n1 [Compound 60, 5-((4-(4-bromophenyl)piperazin-1-yl)methyl)-2-methylquinolin-8-ol] | appears to eliminate tetramerization inhibitor activity | > 3.2 µM | > 3.2 µM | > 3.2 µM | > 3.2 µM | > 3.2 µM | > 3.2 µM |  |  |  |  |  |  |  |  | 
Oc1ccc(CN2CCN(c3ccccc3)CC2)c2cccnc12 [Compound 22, 5-((4-phenylpiperazin-1-yl)methyl)quinolin-8-ol] |  | > 3.2 µM | > 3.2 µM | > 3.2 µM |  | 3 µM |  | ~3 µM |  |  |  |  |  |  |  | 
Oc1ccc(CN2CCOCC2)c2cccnc12 [Compound 2, 4-((8-hydroxyquinolin-1-ium-5-yl)methyl)morpholin-4-ium chloride] |  | > 6.4 µM | > 6.4 µM | > 6.4 µM | 2.29 µM | 2.09 µM | 2.75 µM |  |  |  |  |  |  |  |  | 
COc1ccc(N2CCN(Cc3cc(Br)c(O)c4ncccc34)CC2)cc1 [Compound 73] |  | 2.29 µM | 2.51 µM | 1.51 µM |  | 1.2 µM | 1.07 µM |  |  |  |  |  |  |  |  | 
Oc1ccc(CN2CCN(c3ccc(I)cc3)CC2)c2cccnc12 [Compound 31, 5-((4-(4-iodophenyl)piperazin-1-yl)methyl)quinolin-8-ol] | appeared less potent |  |  |  |  |  |  |  |  |  |  |  |  |  |  | 
O=S1(=O)CCN(Cc2cc(I)c(O)c3ncccc23)CC1 [Compound 18, 4-((8-hydroxy-7-iodoquinolin-5-yl)methyl)thiomorpholine 1,1-dioxide] |  |  |  |  |  |  |  | ~0.8 µM |  |  |  |  |  |  |  | 
O=[N+]([O-])c1ccc(N2CCN(Cc3ccc(O)c4ncccc34)CC2)cc1 [Compound 37, 5-((4-(4-nitrophenyl)piperazin-1-yl)methyl)quinolin-8-ol] |  |  |  |  |  |  |  | ~1.6 µM | slight ability to disrupt the unsurmountable tetramer; also recorded: able to inhibit a small amount of the EphrinB2-EphB2 unsurmountable tetramer |  |  |  |  |  |  | 
COc1ccccc1N1CCN(Cc2ccc(O)c3ncccc23)CC1 [Compound 69, 5-((4-(2-methoxyphenyl)piperazin-1-yl)methyl)quinolin-8-ol] |  | > 3.2 µM | > 3.2 µM | > 3.2 µM | 2.01 µM | 2.19 µM | 1.7 µM |  |  | less action toward EphB4 and EphB2 but high specificity for EphB1 | 0*/0*% | 2.2% and 0% | 3.6% and 0% | 19.2% and 15.5% |  | 
CC(=O)Nc1ccc(N2CCN(Cc3ccc(O)c4ncccc34)CC2)cc1 [Compound 50, N-(4-(4-((8-hydroxyquinolin-5-yl)methyl)piperazin-1-yl)phenyl)acetamide] |  | > 3.2 µM | > 3.2 µM | > 3.2 µM |  | 2.77 µM | 1.95 µM | > 3 µM |  |  |  |  |  |  |  | 
O=C(Cc1ccccc1)Nc1ccc(N2CCN(Cc3cc(Br)c(O)c4ncccc34)CC2)cc1 [Compound 52, N-(4-(4-((7-bromo-8-hydroxyquinolin-5-yl)methyl)piperazin-1-yl)phenyl)-2-phenylacetamide] |  | > 3.2 µM | > 3.2 µM | > 3.2 µM | > 3.2 µM | 3.31 µM | > 3.2 µM | > 3 µM |  | less action toward EphB4 and EphB2 but high specificity for EphB1 |  |  |  |  |  | 
Oc1ccc(CN2CCN(Cc3ccc(Br)cc3)CC2)c2cccnc12 [Compound 43, 5-((4-(4-bromobenzyl)piperazin-1-ium-1-yl)methyl)-8-hydroxyquinolin-1-ium chloride] |  | 3.09 µM and 3.24 µM | 2.7 µM and 2.75 µM | 2.82 µM and 3.01 µM | 2.24 µM | 1.95 µM | 2.34 µM and 2.14 µM |  |  |  |  |  | 37.8% and 62.3% | 56.3% and 75.4% | 19.9% and 33.5% | 36.5% and 47.3%
